Measurements taken from PubChem BioAssay AID2060909 (Molecular Pharmacology Branch, DTP, NCI, 2025).

Test system: 362531-283-R-J2-PDC complex spheroid viability
Assay: Anticancer human tumor 362531-283-R-J2-PDC patient-derived colon adenocarcinoma cell line growth inhibition [RAS]
Settings: for IC50: curve of first compound; for viability, T/C: stronger effect = lower value
Summary of the method: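 Multi-cell-type spheroids: tumor cells plus HUVEC endothelial cells and mesenchymal stem cells. RAS-pathway inhibitors were combined with targeted agents, each dosed in half-log steps down from clinical Cmax, or from 10 microM when Cmax was unknown.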

[1] = second compound 0.0316 µM, first compound 0.0316 µM
[2] = second compound 0.0316 µM, first compound 0.1 µM
[3] = second compound 0.0316 µM, first compound 0.316 µM
[4] = second compound 0.0316 µM, first compound 1 µM
[5] = second compound 0.1 µM, first compound 0.0316 µM
[6] = second compound 0.1 µM, first compound 0.1 µM
[7] = second compound 0.1 µM, first compound 0.316 µM
[8] = second compound 0.1 µM, first compound 1 µM
[9] = second compound 0.316 µM, first compound 0.0316 µM
[10] = second compound 0.316 µM, first compound 0.1 µM
[11] = second compound 0.316 µM, first compound 0.316 µM
[12] = second compound 0.316 µM, first compound 1 µM
[13] = second compound 1 µM, first compound 0.0316 µM
[14] = second compound 1 µM, first compound 0.1 µM
[15] = second compound 1 µM, first compound 0.316 µM
[16] = second compound 1 µM, first compound 1 µM
[17] = second compound 3.16 µM, first compound 0.0316 µM
[18] = second compound 3.16 µM, first compound 0.1 µM
[19] = second compound 3.16 µM, first compound 0.316 µM
[20] = second compound 3.16 µM, first compound 1 µM
[21] = second compound 10 µM, first compound 0.0316 µM
[22] = second compound 10 µM, first compound 0.1 µM
[23] = second compound 10 µM, first compound 0.316 µM
[24] = second compound 10 µM, first compound 1 µM
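Further: spheroids exposed to the agents for 7 days before readout.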
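Wherever viability, T/C is given: luminescence viability as percent of DMSO vehicle control wells.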

Compound: CC(=O)OC12COC1CC(O)C1(C)C(=O)C(O)C3=C(C)C(OC(=O)C(O)C(NC(=O)OC(C)(C)C)c4ccccc4)CC(O)(C(OC(=O)c4ccccc4)C21)C3(C)C (centres undefined) + C#Cc1c(F)ccc2cc(O)cc(-c3ncc4c(N5CC6CCC(C5)N6)nc(OCC56CCCN5CC(F)C6)nc4c3F)c12
- IC50 (second compound 0.0316 µM): 169 nM
- IC50 (second compound 0.1 µM): 170 nM
- IC50 (second compound 0.316 µM): 140 nM
- IC50 (second compound 1 µM): 103 nM
- IC50 (second compound 3.16 µM): 54.3 nM
- IC50 (second compound 10 µM): < 31.6 nM
- viability, T/C [1]: 83.2%
- viability, T/C [2]: 76.4%
- viability, T/C [3]: 18.4%
- viability, T/C [4]: 14%
- viability, T/C (second compound 0.0316 µM, first compound 3.16 µM): 14.6%
- viability, T/C (second compound 0.0316 µM, first compound 10 µM): 18.5%
- viability, T/C [5]: 81.9%
- viability, T/C [6]: 80.5%
- viability, T/C [7]: 13.6%
- viability, T/C [8]: 13.6%
- viability, T/C (second compound 0.1 µM, first compound 3.16 µM): 13.4%
- viability, T/C (second compound 0.1 µM, first compound 10 µM): 15.5%
- viability, T/C [9]: 90.9%
- viability, T/C [10]: 64.4%
- viability, T/C [11]: 15.1%
- viability, T/C [12]: 11.7%
- viability, T/C (second compound 0.316 µM, first compound 3.16 µM): 12.9%
- viability, T/C (second compound 0.316 µM, first compound 10 µM): 11.8%
- viability, T/C [13]: 81.2%
- viability, T/C [14]: 50.8%
- viability, T/C [15]: 13.6%
- viability, T/C [16]: 14.6%
- viability, T/C (second compound 1 µM, first compound 3.16 µM): 13.6%
- viability, T/C (second compound 1 µM, first compound 10 µM): 13.1%
- viability, T/C [17]: 65.6%
- viability, T/C [18]: 32.4%
- viability, T/C [19]: 14.2%
- viability, T/C [20]: 15%
- viability, T/C (second compound 3.16 µM, first compound 3.16 µM): 13.5%
- viability, T/C (second compound 3.16 µM, first compound 10 µM): 13.5%
- viability, T/C [21]: 32.3%
- viability, T/C [22]: 15.6%
- viability, T/C [23]: 13.5%
- viability, T/C [24]: 15.1%
- viability, T/C (second compound 10 µM, first compound 3.16 µM): 13.6%
- viability, T/C (second compound 10 µM, first compound 10 µM): 12.5%

Compound: Nc1ccn(C2OC(CO)C(O)C2(F)F)c(=O)n1 (centres undefined) + C#Cc1c(F)ccc2cc(O)cc(-c3ncc4c(N5CC6CCC(C5)N6)nc(OCC56CCCN5CC(F)C6)nc4c3F)c12
- IC50 (second compound 0.0316 µM): 170 nM
- IC50 (second compound 0.1 µM): 164 nM
- IC50 (second compound 0.316 µM): 118 nM
- IC50 (second compound 1 µM): 74.4 nM
- IC50 (second compound 3.16 µM): 57.6 nM
- IC50 (second compound 10 µM): < 3.16 nM
- viability, T/C (second compound 0.0316 µM, first compound 0.00316 µM): 101%
- viability, T/C (second compound 0.0316 µM, first compound 0.01 µM): 104%
- viability, T/C [1]: 81%
- viability, T/C [2]: 72.6%
- viability, T/C [3]: 20.5%
- viability, T/C [4]: 26.8%
- viability, T/C (second compound 0.1 µM, first compound 0.00316 µM): 104%
- viability, T/C (second compound 0.1 µM, first compound 0.01 µM): 97.1%
- viability, T/C [5]: 85.5%
- viability, T/C [6]: 72.6%
- viability, T/C [7]: 15.2%
- viability, T/C [8]: 24.4%
- viability, T/C (second compound 0.316 µM, first compound 0.00316 µM): 92.5%
- viability, T/C (second compound 0.316 µM, first compound 0.01 µM): 92.4%
- viability, T/C [9]: 84.1%
- viability, T/C [10]: 56.4%
- viability, T/C [11]: 16.5%
- viability, T/C [12]: 17.5%
- viability, T/C (second compound 1 µM, first compound 0.00316 µM): 76.9%
- viability, T/C (second compound 1 µM, first compound 0.01 µM): 79.5%
- viability, T/C [13]: 66.8%
- viability, T/C [14]: 45.5%
- viability, T/C [15]: 13.8%
- viability, T/C [16]: 17.5%
- viability, T/C (second compound 3.16 µM, first compound 0.00316 µM): 61.1%
- viability, T/C (second compound 3.16 µM, first compound 0.01 µM): 62.6%
- viability, T/C [17]: 61.3%
- viability, T/C [18]: 39.9%
- viability, T/C [19]: 14.8%
- viability, T/C [20]: 12.8%
- viability, T/C (second compound 10 µM, first compound 0.00316 µM): 54.7%
- viability, T/C (second compound 10 µM, first compound 0.01 µM): 45.1%
- viability, T/C [21]: 41.7%
- viability, T/C [22]: 15.1%
- viability, T/C [23]: 18.1%
- viability, T/C [24]: 16.2%
